Test results: patent publication EP4623702A1, “ORAL PRODUCT” (Nicoventures Trading Limited, priority 2024, dated 2025)
Read-outs that look alike come from different tables or passages of the source.

Tests used:
[1] = target: T1, MDCK-MDR1 cell line heterologously expressing the human P-gp transporter (MDR1) (Homo sapiens, UniProt P08183); conditions: for effect of quercetin on BBB permeability of the compound: MDCK-MDR1
[2] = target: P-gp (MDR1, ABCB1), human (Homo sapiens, UniProt P08183); assay: in vitro; conditions: dog, MDCK-MDR1, pH 7.4
[3] = target: T1, MDCK-MDR1 cell line heterologously expressing the human P-gp transporter (MDR1); assay: in vitro; conditions: dog, MDCK-MDR1, pH 7.4
[4] = target: T1, MDCK-MDR1 cell line heterologously expressing the human P-gp transporter (MDR1); assay: MDCK-MDR1 permeability assay (in vitro model for BBB permeation, P-gp substrate identification, with/without inhibitors); conditions: Compound Alone; apical to basolateral; 1 or 10 µM, 60 minutes, pH 7.4 (Table 2)
p-glycoprotein = p-glycoprotein (Homo sapiens, UniProt P08183); conditions: value stated as basis for the 30 µM inhibitor concentration; no source given; cited from earlier work
Chain of p-glycoprotein (P08183 whole entry): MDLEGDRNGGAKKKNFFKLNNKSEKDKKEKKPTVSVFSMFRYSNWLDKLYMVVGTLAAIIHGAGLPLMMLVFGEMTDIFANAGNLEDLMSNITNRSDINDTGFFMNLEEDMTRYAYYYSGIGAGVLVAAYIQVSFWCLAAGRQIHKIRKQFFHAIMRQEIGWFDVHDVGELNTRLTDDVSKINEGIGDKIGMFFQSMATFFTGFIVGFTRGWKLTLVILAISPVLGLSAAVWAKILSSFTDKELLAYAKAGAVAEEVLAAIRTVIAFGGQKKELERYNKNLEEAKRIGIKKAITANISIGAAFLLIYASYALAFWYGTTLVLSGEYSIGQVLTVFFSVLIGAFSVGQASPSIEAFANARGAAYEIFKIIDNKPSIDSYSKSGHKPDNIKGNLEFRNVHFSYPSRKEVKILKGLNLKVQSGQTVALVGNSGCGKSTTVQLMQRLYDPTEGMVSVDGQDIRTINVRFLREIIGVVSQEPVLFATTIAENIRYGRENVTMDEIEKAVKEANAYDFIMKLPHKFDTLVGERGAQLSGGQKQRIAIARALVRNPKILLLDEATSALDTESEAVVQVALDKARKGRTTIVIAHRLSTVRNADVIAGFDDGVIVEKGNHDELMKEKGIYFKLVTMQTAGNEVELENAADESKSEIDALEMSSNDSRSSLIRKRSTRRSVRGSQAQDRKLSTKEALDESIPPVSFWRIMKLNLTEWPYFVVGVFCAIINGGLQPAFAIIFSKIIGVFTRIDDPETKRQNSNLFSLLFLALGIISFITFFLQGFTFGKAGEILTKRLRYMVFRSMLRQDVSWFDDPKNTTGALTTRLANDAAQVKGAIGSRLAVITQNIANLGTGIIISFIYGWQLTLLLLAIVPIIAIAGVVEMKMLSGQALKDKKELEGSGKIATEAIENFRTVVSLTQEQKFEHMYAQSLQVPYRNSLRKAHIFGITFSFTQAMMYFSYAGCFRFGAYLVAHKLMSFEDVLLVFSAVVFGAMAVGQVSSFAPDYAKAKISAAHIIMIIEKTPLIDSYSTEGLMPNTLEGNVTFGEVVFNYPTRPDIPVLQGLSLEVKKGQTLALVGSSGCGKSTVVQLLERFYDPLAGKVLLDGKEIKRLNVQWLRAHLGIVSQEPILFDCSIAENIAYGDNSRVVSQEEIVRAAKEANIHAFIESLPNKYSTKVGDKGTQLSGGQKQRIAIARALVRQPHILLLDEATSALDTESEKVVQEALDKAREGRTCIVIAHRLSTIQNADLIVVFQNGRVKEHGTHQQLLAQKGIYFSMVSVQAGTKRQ

Chain of P-gp (MDR1, ABCB1), human (P08183 whole entry): as above
T1 sequence (P08183 whole entry): as above

Structure (SMILES)	A2B Apparent permeability (Papp) ([1]; dog, MDCK-MDR1, 60 min, pH 7.4) [×10⁻⁶ cm/s]	Papp A→B at 60 min [2] [×10⁻⁶ cm/s]	Papp B→A at 60 min [2] [×10⁻⁶ cm/s]	Papp at 60 min [2] [×10⁻⁶ cm/s]	A2B Apparent permeability (Papp) ([1]; MDCK-MDR1, pH 7.4) [×10⁻⁶ cm/s]	B2A Apparent permeability (Papp) ([1]; MDCK-MDR1, pH 7.4) [×10⁻⁶ cm/s]	Papp A→B at 1 h [3] [×10⁻⁶ cm/s]	Papp B→A at 1 h [3] [×10⁻⁶ cm/s]	also measured
O=C(O)[C@H]1O[C@@H](Oc2cc(O)c3c(=O)cc(-c4ccc(O)c(O)c4)oc3c2)[C@H](O)[C@@H](O)[C@@H]1O [Luteolin-7-glucoronide, Luteolin 7-glucuronide]	–	–	–	–	0.175	0.134	0.205	0.076	–
O=C(/C=C/C=C/c1ccc2c(c1)OCO2)N1CCCCC1 [Piperine, (2E,4E)-5-(2H-1,3-benzodioxol-5-yl)-1-(piperidin-1-yl)-penta-2,4-dien-1-one]	–	–	–	–	–	–	–	–	EC50 (p-glycoprotein): 30 µM
CC1=C(C=O)C(C)(C)CC=C1 [Safranal]	–	–	–	–	–	–	90	43.3	–
CC1=C(C)C(=O)O[C@@H]([C@](C)(O)[C@H]2CC[C@H]3[C@@H]4[C@@H]5O[C@@H]5[C@@]5(O)CC=CC(=O)[C@]5(C)[C@H]4CC[C@]23C)C1 [Withanolide A]	–	–	–	–	17.3	20	3.65	22.2	effect of quercetin on BBB permeability of the compound [1]: did not, for instance, significantly enhance
CC1=C(C)C(=O)O[C@@H]([C@@H](C)[C@H]2CC[C@H]3[C@@H]4[C@@H]5O[C@@H]5[C@@]5(O)CC=CC(=O)[C@]5(C)[C@H]4CC[C@]23C)C1 [Withanolide B]	–	–	–	–	13.5	11.6	12	13.3	–
CC1=C(C)C(=O)O[C@@H]([C@@H](C)[C@@]2(O)CC[C@H]3[C@@H]4[C@@H]5O[C@@H]5[C@@]5(O)CC=CC(=O)[C@]5(C)[C@H]4CC[C@@]32C)C1 [Withanone]	–	–	–	–	–	–	–	–	effect of quercetin on BBB permeability of the compound [1]: did not, for instance, significantly enhance; B2A Apparent permeability (Papp) ([1]; dog, MDCK-MDR1, pH 7.4): 19.7 ×10⁻⁶ cm/s; Papp A→B [2]: 1.23 ×10⁻⁶ cm/s; Papp B→A [2]: 31.6 ×10⁻⁶ cm/s

Continued, in another order:

A2B Apparent permeability (Papp) ([1]; dog, MDCK-MDR1, 60 min, pH 7.4) [×10⁻⁶ cm/s]	Papp A→B at 60 min [2] [×10⁻⁶ cm/s]	Papp B→A at 60 min [2] [×10⁻⁶ cm/s]	Papp at 60 min [2] [×10⁻⁶ cm/s]	Structure (SMILES)	A2B Apparent permeability (Papp) ([1]; MDCK-MDR1, pH 7.4) [×10⁻⁶ cm/s]	B2A Apparent permeability (Papp) ([1]; MDCK-MDR1, pH 7.4) [×10⁻⁶ cm/s]	Papp A→B at 1 h [3] [×10⁻⁶ cm/s]	Papp B→A at 1 h [3] [×10⁻⁶ cm/s]	also measured
9.71	9.71	19.1	1 to 10	O=c1cc(-c2ccc(O)cc2)oc2cc(O)cc(O)c12 [Apigenin]	–	–	–	–	–
1.67	1.67	5.84	1 to 10	CC(/C=C/C=C(\C)C(=O)O)=C\C=C\C=C(C)\C=C\C=C(/C)C(=O)O [Crocetin]	–	–	–	–	–
0.22	0.22	3.12	< 1	CC(/C=C/C=C(\C)C(=O)O[C@@H]1O[C@H](CO[C@@H]2O[C@H](CO)[C@@H](O)[C@H](O)[C@H]2O)[C@@H](O)[C@H](O)[C@H]1O)=C\C=C\C=C(C)\C=C\C=C(/C)C(=O)O[C@@H]1O[C@H](CO[C@@H]2O[C@H](CO)[C@@H](O)[C@H](O)[C@H]2O)[C@@H](O)[C@H](O)[C@H]1O [Crocin]	–	–	–	–	–
–	0.174	0.35	< 1	CC1(C)CC[C@]2(C(=O)O)CC[C@]3(C)C(=CC[C@@H]4[C@@]5(C)CC[C@H](O)C(C)(C)[C@@H]5CC[C@]43C)[C@@H]2C1 [Oleanoic acid, Oleanolic acid]	–	–	–	–	A2B Apparent permeability (Papp) [4]: 0.174 ×10⁻⁶ cm/s
